This assay deals with STAT5. The assay can be described thus: Immunoblotting (Western blot) analysis of STAT5 degradation efficiency of degraders in treated cells. In kind it is cell-based. How it is done:
Evaluation of the degradation efficiency of degraders may be accomplished by immunoblotting analysis. The representative general protocol is the following:
Cells are maintained in the appropriate culture medium with 10% FBS at 37° C. and an atmosphere of 5% CO2. Cell lines are used within three months of thawing fresh vials. Cells are lysed 1× Cell Lysis Buffer (Cell Signaling Technology, #9803), resolved by SDS-PAGE NuPAGE gel (Thermo Fisher Scientific), and transferred to a PVDF membrane (Millipore). Membranes are blocked using Odyssey TBS Blocker Buffer (LI-COR). IRDye 680RD and 800CW Dye-labeled secondary antibodies (LI-COR) are used. The washed membranes are scanned using Odyssey CLx imager (LI-COR). The intensity of Western blot signaling is quantitated using the Odyssey software. Primary antibodies used are: STAT5 Rabbit mAb (Cell Signaling Technology, #94205), STAT6 Rabbit mAb (Cell Signaling Technology, #5397) and GAPDH mouse monoclonal antibody (Santa Cruz Biotechnology, sc-47724).
To evaluate the degradation efficiency of degraders, immunoblotting analysis was performed. The general protocol is the following.
About 1 million cells for each data point were treated with compounds at indicated concentrations and durations. Untreated and treated cells in cell culture medium were transferred into tubes, followed by centrifugation at 3,000 rpm and 4° C. for 6 min Supernatants were removed from tubes and radioimmunoprecipitation assay (RIPA) lysis buffer supplemented with 1% protease inhibitor cocktail (Fisher Scientific cat. PI87786) and phosphatase inhibitor (Roche cat. 04906837001) were added to tubes containing the remaining cell pellets. The tubes were then left on ice for 30 min and placed in a −80° C. freezer. Subsequently they were thawed in 37° C. water, then centrifuged at 14,000 rpm for 15 min and the cell lysates transferred to new tubes. The concentration of total proteins in each tube was calculated using the Pierce BCA protein Assay kit (cat. 23225). Based on the calculated protein concentration, cell lysates containing approximately the same amount of proteins were transferred to new tubes, then distilled water and 4× Protein Sample Loading Buffer for Western Blots (LI-COR cat. 928-40004) supplemented with 20% of mercaptoethanol (Sigma Aldrich cat. M6250) were added on ice. The cell lysates were then reduced and denatured at 95° C. for 5 min. From the tubes containing cell lysates an equal amount of protein samples (20-40 μg) was loaded into precast 8%, 10%, 4%-12%, or 4%-20% Tris-glycine gels (Novex) filled with Tris-glycine SDS running buffer. After the proteins were resolved, they were transferred onto Immobile-FL PVDF Membrane (Millipore Sigma cat. IPFL00010), using Mini Trans-Blot Electrophoretic Transfer Cell (Bio-Rad 1703930). The membranes were blocked with Intercept Blocking Buffer (LI-COR cat. 927-70001) in LI-COR Western Blot boxes for 1 h at rt. The membranes were washed with 1× Tris-buffered saline-Tween-20 (TBST, 1× solution was made from 20×TBST solution, ThermoFisher Scientific cat. 28360) for 5 min 4 times. The membranes were incubated overnight at 4° C. in Intercept Blocking Buffer supplemented with primary antibodies (normally antibody:buffer 1:1000) and Tween-20. The membranes were washed with TBST for 5 min 4 times and were incubated with Intercept Blocking Buffer supplemented with IRDye 800CE Secondary Antibodies, IRDye 680RD Secondary Antibodies (LI-COR biosciences), Tween-20, and 10% SDS solution, for 1 h at rt. The membranes were then washed with TBST for 5 min 4 times and rinsed with deionized water before drying and scanning with Odyssey Dlx Amazing System (LI-COR). The immunoblots were finally quantified by the software.
For orientation: Immunoblotting shows a protein as a band on a membrane.

Setting [1] is: MOLM-16 cells, numeric bound, read-out: DC50 S5 MOLM-16.
Setting [2] is: SKNO1 cells, read-out: DC50 S5 SKNO1.

Like-named read-outs stand apart in the source and are kept apart here.

As to `CC(C)(C)[C@H](NC(=O)c1cc2cc(C(F)(F)P(=O)(O)O)ccc2s1)C(=O)N1C[C@H](OCc2ccccc2)C[C@H]1C(=O)N(CCC(=O)NCCCC#Cc1cccc2c1CN(C1CCC(=O)NC1=O)C2=O)c1ccc(Br)cc1` (stereo partly drawn) [Compound 618], the 50% degradation concentration (DC50) under setting [1] is greater than 0.3 µM. Still for that read-out and setting: in the case of `CC(C)(C)[C@H](NC(=O)c1cc2cc(C(F)(F)P(=O)(O)O)ccc2s1)C(=O)N1C[C@H](OCc2ccccc2)C[C@H]1C(=O)N(CCC(=O)NCCCCCC#Cc1cccc2c1CN(C1CCC(=O)NC1=O)C2=O)c1ccc(Br)cc1` (stereo partly drawn) [Compound 620, ((2-(((2S)-1-((2S,4R)-4-(benzyloxy)-2-((4-bromophenyl)(3-((7-(2-(2,6-dioxopiperidin-3-yl)-1-oxoisoindolin-4-yl)hept-6-yn-1-yl)amino)-3-oxopropyl)carbamoyl)pyrrolidin-1-yl)-3,3-dimethyl-1-oxobutan-2-yl)carbamoyl)benzo[b]thiophen-5-yl)difluoromethyl)phosphonic acid] it was greater than 0.3 µM.

In the case of `CC(C)(C)[C@H](NC(=O)c1cc2cc(C(F)(F)P(=O)(O)O)ccc2s1)C(=O)N1CCC[C@H]1C(=O)N(CCC(=O)NCCCC#Cc1cccc2c1CN(C1CCC(=O)NC1=O)C2=O)c1ccc(F)cc1` (stereo partly drawn) [Compound 634, ((2-(((2S)-1-((2S)-2-((3-((5-(2-(2,6-dioxopiperidin-3-yl)-1-oxoisoindolin-4-yl)pent-4-yn-1-yl)amino)-3-oxopropyl)(4-fluorophenyl)carbamoyl)pyrrolidin-1-yl)-3,3-dimethyl-1-oxobutan-2-yl)carbamoyl)benzo[b]thiophen-5-yl)difluoromethyl)phosphonic acid], the half-maximal degradation concentration (DC50) reads like this: under setting [1], greater than 0.3 µM; under setting [2], greater than 10 µM. Take `CC(C)(C)[C@H](NC(=O)c1cc2cc(C(F)(F)P(=O)(O)O)ccc2s1)C(=O)N1CCC[C@H]1C(=O)N(CCC(=O)NCCCC#Cc1cccc2c1CN(C1CCC(=O)NC1=O)C2=O)c1ccccc1` (stereo partly drawn) [Compound 633, ((2-(((2S)-1-((2S)-2-((3-((5-(2-(2,6-dioxopiperidin-3-yl)-1-oxoisoindolin-4-yl)pent-4-yn-1-yl)amino)-3-oxopropyl)(phenyl)carbamoyl)pyrrolidin-1-yl)-3,3-dimethyl-1-oxobutan-2-yl)carbamoyl)benzo[b]thiophen-5-yl)difluoromethyl)phosphonic acid]: the DC50 is greater than 10 µM (KU-812 cells, read-out: DC50 S5 KU-812); greater than 0.3 µM under setting [1]; 1 to 10 µM under setting [2]. As for `CC(C)(C)[C@H](NC(=O)c1cc2cc(C(F)(F)P(=O)(O)O)ccc2s1)C(=O)N1CCC[C@H]1C(=O)N(CCC(=O)NCCCC#Cc1cccc2c1CN(C1CCC(=O)NC1=O)C2=O)c1ccc(I)cc1` (stereo partly drawn) [Compound 637, ((2-(((2S)-1-((2S)-2-((3-((5-(2-(2,6-dioxopiperidin-3-yl)-1-oxoisoindolin-4-yl)pent-4-yn-1-yl)amino)-3-oxopropyl)(4-iodophenyl)carbamoyl)pyrrolidin-1-yl)-3,3-dimethyl-1-oxobutan-2-yl)carbamoyl)benzo[b]thiophen-5-yl)difluoromethyl)phosphonic acid], the DC50 was greater than 0.3 µM under setting [1] and 0.1 to 1 µM under setting [2]. Take `CCN1CC[C@H]2CC[C@@H](C(=O)N(CCC(=O)NCCCCCC#Cc3cccc4c3CN(C3CCC(=O)NC3=O)C4=O)c3ccc(Br)cc3)N2C(=O)[C@@H](NC(=O)c2cc3cc(C(F)(F)P(=O)(O)O)ccc3s2)C1` (stereo partly drawn) [Compound 629, ((2-(((5S,8S,10aR)-8-((4-bromophenyl)(3-((7-(2-(2,6-dioxopiperidin-3-yl)-1-oxoisoindolin-4-yl)hept-6-yn-1-yl)amino)-3-oxopropyl)carbamoyl)-3-ethyl-6-oxodecahydropyrrolo[1,2-a][1,5]diazocin-5-yl)carbamoyl)benzo[b]thiophen-5-yl)difluoromethyl)phosphonic acid]: the DC50 under setting [1] is greater than 0.3 µM. The same measure, in the same setting: to `CC(C)(C)[C@H](NC(=O)c1cc2cc(C(F)(F)P(=O)(O)O)ccc2s1)C(=O)N1C[C@H](OCc2ccccc2)C[C@H]1C(=O)N(CCC(=O)NCCC#Cc1cccc2c1CN(C1CCC(=O)NC1=O)C2=O)c1ccc(Br)cc1` (stereo partly drawn) [Compound 617, ((2-(((2S)-1-((2S,4R)-4-(benzyloxy)-2-((4-bromophenyl)(3-((4-(2-(2,6-dioxopiperidin-3-yl)-1-oxoisoindolin-4-yl)but-3-yn-1-yl)amino)-3-oxopropyl)carbamoyl)pyrrolidin-1-yl)-3,3-dimethyl-1-oxobutan-2-yl)carbamoyl)benzo[b]thiophen-5-yl)difluoromethyl)phosphonic acid] belongs greater than 0.3 µM. For the compound `Cc1ccc(N(CCC(=O)NCCCC#Cc2cccc3c2CN(C2CCC(=O)NC2=O)C3=O)C(=O)[C@@H]2CCCN2C(=O)[C@@H](NC(=O)c2cc3cc(C(F)(F)P(=O)(O)O)ccc3s2)C(C)(C)C)cc1` (stereo partly drawn) [Compound 646, ((2-(((2S)-1-((2S)-2-((3-((5-(2-(2,6-dioxopiperidin-3-yl)-1-oxoisoindolin-4-yl)pent-4-yn-1-yl)amino)-3-oxopropyl)(p-tolyl)carbamoyl)pyrrolidin-1-yl)-3,3-dimethyl-1-oxobutan-2-yl)carbamoyl)benzo[b]thiophen-5-yl)difluoromethyl)phosphonic acid], the DC50 was greater than 0.3 µM under setting [1] and 0.1 to 1 µM under setting [2]. Consider `CC(C)(C)[C@H](NC(=O)c1cc2cc(C(F)(F)P(=O)(O)O)ccc2s1)C(=O)N1C[C@H](OCc2ccccc2)C[C@H]1C(=O)N(CCC(=O)NCC#Cc1cccc2c1CN(C1CCC(=O)NC1=O)C2=O)c1ccc(Br)cc1` (stereo partly drawn) [Compound 616, ((2-(((2S)-1-((2S,4R)-4-(benzyloxy)-2-((4-bromophenyl)(3-((3-(2-(2,6-dioxopiperidin-3-yl)-1-oxoisoindolin-4-yl)prop-2-yn-1-yl)amino)-3-oxopropyl)carbamoyl)pyrrolidin-1-yl)-3,3-dimethyl-1-oxobutan-2-yl)carbamoyl)benzo[b]thiophen-5-yl)difluoromethyl)phosphonic acid], for which the half-maximal degradation concentration (DC50) under setting [1] was greater than 0.3 µM.

Turning to `CC(C)(C)[C@H](NC(=O)c1cc2cc(C(F)(F)P(=O)(O)O)ccc2s1)C(=O)N1CCC[C@H]1C(=O)N(CCC(=O)NCCCC#Cc1cccc2c1CN(C1CCC(=O)NC1=O)C2=O)c1ccc(C#N)cc1` (stereo partly drawn) [Compound 642, ((2-(((2S)-1-((2S)-2-((4-cyanophenyl)(3-((5-(2-(2,6-dioxopiperidin-3-yl)-1-oxoisoindolin-4-yl)pent-4-yn-1-yl)amino)-3-oxopropyl)carbamoyl)pyrrolidin-1-yl)-3,3-dimethyl-1-oxobutan-2-yl)carbamoyl)benzo[b]thiophen-5-yl)difluoromethyl)phosphonic acid], the 50% degradation concentration (DC50) is, setting by setting: under setting [1], greater than 0.3 µM; under setting [2], greater than 10 µM. Turning to `CC(C)(C)[C@H](NC(=O)c1cc2cc(C(F)(F)P(=O)(O)O)ccc2s1)C(=O)N1C[C@H](OCc2ccc(C#Cc3cccc4c3CN(C3CCC(=O)NC3=O)C4=O)cc2)C[C@H]1C(=O)Nc1ncc(-c2ccccc2)s1` (stereo partly drawn) [Compound 632, ((2-(((2S)-1-((2S,4R)-4-((4-((2-(2,6-dioxopiperidin-3-yl)-1-oxoisoindolin-4-yl)ethynyl)benzyl)oxy)-2-((5-phenylthiazol-2-yl)carbamoyl)pyrrolidin-1-yl)-3,3-dimethyl-1-oxobutan-2-yl)carbamoyl)benzo[b]thiophen-5-yl)difluoromethyl)phosphonic acid], under setting [1], the DC50 is greater than 0.3 µM. With `CC(C)(C)[C@H](NC(=O)c1cc2cc(C(F)(F)P(=O)(O)O)ccc2s1)C(=O)N1CCC[C@H]1C(=O)N(CC(=O)NCCCCC#Cc1cccc2c1CN(C1CCC(=O)NC1=O)C2=O)c1ccc(F)cc1` (stereo partly drawn) [Compound 640, ((2-(((2S)-1-((2S)-2-((2-((6-(2-(2,6-dioxopiperidin-3-yl)-1-oxoisoindolin-4-yl)hex-5-yn-1-yl)amino)-2-oxoethyl)(4-fluorophenyl)carbamoyl)pyrrolidin-1-yl)-3,3-dimethyl-1-oxobutan-2-yl)carbamoyl)benzo[b]thiophen-5-yl)difluoromethyl)phosphonic acid], the DC50 under setting [1] is greater than 0.3 µM.

The DC50 is the concentration at which degradation of the target reaches its halfway point.

The values above are taken from patent publication US20230295197A1, “STAT5 and STAT6 Degraders and Uses Thereof” (REGENTS OF THE UNIVERSITY OF MICHICAN, priority 2022, published 2023).
